Test results: US6603023B2 (priority 1996, dated 2003)
pIC50: −log10 of the molar value. “And” between values parts separate entries of the source, which are not always exact repeats. Identical values can stand only once. Counter-ions that a name gives are not always drawn. Like-named read-outs stand apart in the source and are kept apart here. Marks after values point to notes of the source that are not given here.

Columns and labels:
CCRF-CEM/Taxol® = test: cells; format: cell-based, human; settings: for pIC50: 72 h
Summary of the method: (§1)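 Cells seeded at 5×10^4 cells/mL in RPMI-1640 + 10% heat-inactivated FBS, 37 °C/5% CO2; resistant lines cultured continuously with selecting agent. 72 h drug incubation. XTT (1 mg/mL) mixed with PMS to 0.025 mM PMS, 4 h, read 450 nm/630 nm.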

CCRF-CEM/VBL100 = test: cells; format: cell-based, human
Summary of the method: as §1

CCRF-CEM/VM1 = test: cells; format: cell-based, human
Summary of the method: as §1

[1] = system: DC-3F hamster lung fibroblast cell line; test: SRB cytotoxicity, DC-3F; format: cell-based
Summary of the method: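 Monolayer cultures grown in RPMI 1640-10% FBS at 37 °C, 5% CO2, with resistant sublines kept under their selecting agent. Cytotoxicity determined by SRB protein staining (TCA fixation, absorbance 570 nm) in duplicate at six to seven drug concentrations. ED50 obtained by median-effect plot analysis.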

DC-3F/ADX = test: cells; format: cell-based, hamster
Summary of the method: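 Hamster lung fibroblast DC-3F sublines selected with actinomycin D (ADII moderate, ADX very strong MDR), maintained under selecting agent in RPMI 1640-10% FBS at 37° C. Monolayers exposed to six to seven drug concentrations in duplicate, TCA-fixed, stained with 0.4% SRB; absorbance 570 nm, analyzed by median-effect plot.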

SK-N-FI = test: cells; format: cell-based, human; settings: for pIC50: 72 h
Procedure: The drug-resistant cell lines were continuously cultured in the presence of the selecting agent, AD, DX, VBL or VM to maintain the drug resistant phenotypes. […] All cells were cultured in RPMI 1640-10% FBS at 37° C. 5% CO2 (see below).
(§2) The cytotoxicity of the drug toward the monolayer cell cultures (such as DC-3F, MCF-7, SK-N-As and sublines) was determined in 96-well microtiter plates by the SRB method as described by Skehan and co-workers (Skehan, P., et al., J. Natl. Cancer Inst. 1990, 82, 1107-1112) for measuring the cellular protein content. Cultures were fixed with trichloroacetic acid and then stained for 30 min with 0.4% suforhodamine B dissolved in 1% acetic acid. Unbound dye was removed by acetic acid washes, and the protein-bound dye was extracted with an unbuffered Tris base (tris(hydroxy-methyl)aminomethane) for determination of absorbance at 570 nm in a 96-well microtiter plate reader. The experiments were carried out in duplicate. Each run entailed six to seven concentrations of the tested drugs. Data were analyzed with the median-effect plot (Chou, T.-C. & Talalay, P. T. (1984) Adv. Enzyme Regul. 22, 27-55) using a previously described computer program (Chou, J., & Chou T.-C. 1987, Dose-effect analysis with microcomputers: Quantitation of ED50, synergism, antagonism, low-dose risk, reception-ligand binding and enzyme kinetics, IBM-PC software and manual, Biosoft, Cambridge, U.K.).

MCF-7 = test: SRB cytotoxicity, MCF-7; format: cell-based, human
Procedure: as §2

MCF-7/Adr = test: cells; format: cell-based, human; settings: for pIC50: 72 h
Procedure: Cultures were fixed with trichloroacetic acid and then stained for 30 min with 0.4% suforhodamine B dissolved in 1% acetic acid. Unbound dye was removed by acetic acid washes, and the protein-bound dye was extracted with an unbuffered Tris base (tris(hydroxy-methyl)aminomethane) for determination of absorbance at 570 nm in a 96-well microtiter plate reader. The experiments were carried out in duplicate. Each run entailed six to seven concentrations of the tested drugs.

[2] = system: human ovarian adenocarcinoma SK-OV-3
[3] = Table 1A, XTT, 72 h, read-out: IC50
[4] = Table 6, single determinations, read-out: IC50
[5] = Table 1C, SRB, 72 h, read-out: IC50
[6] = 35 mg/kg i.p. Q2Dx5 from day 9, day 15
[7] = 35 mg/kg i.p. Q2Dx5 from day 9, day 17
[8] = 35 mg/kg i.p. Q2Dx5 from day 9, day 19
[9] = dEpo B 15 mg/kg i.v. Q2Dx5 from day 9
[10] = dEpo B 15 mg/kg i.v. Q2Dx5 from day 9, day 15
[11] = dEpo B 15 mg/kg i.v. Q2Dx5 from day 9, day 17
[12] = dEpo B 15 mg/kg i.v. Q2Dx5 from day 9, day 19
[13] = Homo sapiens, CCRF-CEM, 72 h, Table 1A, XTT
[14] = Homo sapiens, CCRF-CEM, Table 2, CCR-CEM/VM-1
[15] = Homo sapiens, CCRF-CEM, Table 5, single determinations
[16] = Mesocricetus auratus, DC3F, Table 3
[17] = SK-OV-3 Ovary, dEpoB 30 mg/kg Q2D x 6, Taxol 15 mg/kg Q2D x 6
[18] = Homo sapiens, CCRF-CEM, read-out: IC50 (mean ± of determinations, in parentheses), Table 5

`C/C1=C/C[C@@H](/C(C)=C/c2csc(C)n2)OC(=O)C[C@H](O)C(C)(C)C(=O)[C@H](C)[C@@H](O)[C@@H](C)CCC1` [Desoxyepothilone B, desoxyepothilone B] was tested, and the “(C)/(A) IC50 ratio” value (CCRF-CEM/Taxol®) was 1.7, the pIC50 (CCRF-CEM/Taxol®; Table 1A, XTT, read-out: IC50) was 7.79 and the “fold resistance (cross-resistance) vs parent CCRF-CEM” value (CCRF-CEM/VBL100; CCRF-CEM/VBL100 MDR cells, listed as dEpoB) was 1.8 fold. The pIC50 (CCRF-CEM/VBL100; Table 1, XTT, read-out: IC50) was 7.77, the “(B)/(A) IC50 ratio” value (CCRF-CEM/VBL100; Table 1A, CCRF-CEM/VBL100 vs CCRF-CEM) was 1.8 and the pIC50 (CCRF-CEM/VBL100; [3]) was 7.77. It also gave a pIC50 (CCRF-CEM/VBL100; [4]) of 7.77, a pIC50 (CCRF-CEM/VBL100; Table 7, CEM/VBL, read-out: IC50) of 7.77 and a pIC50 (CCRF-CEM/VBL100; read-out: IC50) of 7.77. The pIC50 (CCRF-CEM/VM1; Table 1, XTT, read-out: IC50) was 7.85, the “(D)/(A) IC50 ratio” value (CCRF-CEM/VM1; Table 1A, CCRF-CEM/VM1 vs CCRF-CEM) was 1.5 and the pIC50 (CCRF-CEM/VM1; [3]) was 7.85. For the same compound, the pIC50 (CCRF-CEM/VM1; [4]) was 7.85, the pIC50 [1, 5] was 9.01 and the “fold resistance vs parent DC-3F” value (DC-3F/ADX; DC-3F/ADX cells) was 0.9 fold. For the same compound, the “folds of resistance (IC50 ratio vs parent cell line)” value (DC-3F/ADX; Table 1C, DC-3F/ADX vs DC-3F) was “(0.9x)”, the pIC50 (DC-3F/ADX; [5]) was 9.04 and the “folds of resistance (IC50 ratio vs parent cell line)” value (SK-N-FI; Table 1C, SK-N-FI vs SK-N-As) was “(2.2x)”. For the same compound, the pIC50 (SK-N-FI; Table 1C, SRB, read-out: IC50) was 7.34, the pIC50 (MCF-7; [5]) was 8.54 and the “fold resistance vs parent MCF-7” value (MCF-7/Adr; MCF-7/Adr cells, listed as dEpoB) was 2.4 fold. For the same compound, the “folds of resistance (IC50 ratio vs parent cell line)” value (MCF-7/Adr; Table 1C, MCF-7/Adr vs MCF-7) was “(2.4x)”, the pIC50 (MCF-7/Adr; Table 1C, SRB, read-out: IC50) was 8.15 and the “Toxicity Death” value ([2]; 35 mg/kg i.p. Q2Dx5 from day 9) was 0/6. The “Tumor Disapp.” value ([2]; 35 mg/kg i.p. Q2Dx5 from day 9) was 0/6, the “Average Body Weight Change” value ([2]; 35 mg/kg i.p. Q2Dx5 from day 9, day 13) was -1.7 g and the “Average Body Weight Change” value [2, 6] was -2.1 g. The “Average Tumor Size (T/C)” value [2, 6] was 0.57, the “Average Body Weight Change” value [2, 7] was -2.1 g and the “Average Tumor Size (T/C)” value [2, 7] was 0.33. The “Average Body Weight Change” value [2, 8] was -2.4 g, the “Average Tumor Size (T/C)” value [2, 8] was 0.35 and the “Average Tumor Size (T/C)” value ([2]; 35 mg/kg i.p. Q2Dx5 from day 9, day 21) was 0.28. The “Toxicity Death” value [2, 9] was 4/6^b, the “Tumor Disapp.” value [2, 9] was 0/6 and the “Average Body Weight Change” value ([2]; dEpo B 15 mg/kg i.v. Q2Dx5 from day 9, day 13) was 0 g. The “Average Body Weight Change” value [2, 10] was -0.6 g, the “Average Tumor Size (T/C)” value [2, 10] was 0.86 and the “Average Body Weight Change” value [2, 11] was -1.1 g. For the same compound, the “Average Tumor Size (T/C)” value [2, 11] was 0.56, the “Average Body Weight Change” value [2, 12] was -2.6 g and the “Average Tumor Size (T/C)” value [2, 12] was 0.50. The “Average Tumor Size (T/C)” value ([2]; dEpo B 15 mg/kg i.v. Q2Dx5 from day 9, day 21) was 0.44, the tumor size treated/control ([2]; dEpoB 35 mg/kg i.p. Q2Dx5, day 21) was 0.28 and the “Lowest Average Tumor Size (T/C)” value ([2]; mouse, in vivo) was 0.17 T/C. The “Therapeutic Effects dEpoB vs Taxol” value ([2]; mouse, in vivo) was “<<”, the “Therapeutic effect Rank Order” value ([2]; mouse, in vivo) was “Taxol ® ≈ dEpoB” and the “Tumor Disappearance” value ([2]; mouse, in vivo) was 0. For the same compound, the “Therapeutic effect Rank Order” value ([2]; mouse, in vivo, iv) was “Taxol ® > dEpoB”.

`CC(=O)O[C@H]1C(=O)[C@@]2(C)[C@H]([C@H](OC(=O)c3ccccc3)[C@]3(O)C[C@H](OC(=O)[C@H](O)[C@@H](NC(=O)c4ccccc4)c4ccccc4)C(C)=C1C3(C)C)[C@]1(OC(C)=O)CO[C@@H]1C[C@@H]2O` [Taxol ®, paclitaxel] gave a pIC50 (CCRF-CEM/VM1; [13]) of 8.18, a pIC50 (CCRF-CEM/VM1; Homo sapiens, CCRF-CEM, Table 1, XTT) of 8.70 and a pIC50 (CCRF-CEM/VM1; [14]) of 8.52. The pIC50 (CCRF-CEM/VM1; Homo sapiens, CCRF-CEM, Table 2A, Topo II gene mutated cell line) was 8.52, the pIC50 (CCRF-CEM/VM1; [15]) was 8.18 and the pIC50 ([1]; Mesocricetus auratus, DC3F, 72 h, Table 1C, SRB) was 7.02. It also gave a pIC50 [1, 16] of 7.02, a pIC50 ([1]; Mesocricetus auratus, DC3F, relative potency ordering) of 7.05 and a pIC50 (DC-3F/ADX; DC3F/ADX, 72 h, Table 1C, SRB) of 4.49. It also gave a pIC50 (DC-3F/ADX; DC3F/ADX, Table 3) of 4.50, a pIC50 (DC-3F/ADX; DC3F/ADX, relative potency ordering) of 4.49 and a pIC50 (SK-N-FI; Homo sapiens, SK-N-FI) of 6.89. For the same compound, the pIC50 (MCF-7; Homo sapiens, MCF7, 72 h) was 8.48, the pIC50 (MCF-7/Adr; Homo sapiens, NCI/ADR-RES) was 6.82 and the “Tumor Disapp.” value ([2]; 5 mg/kg i.p. Q2Dx5 from day 9) was 0/6. For the same compound, the “Average Body Weight Change” value ([2]; 5 mg/kg i.p. Q2Dx5 from day 9, day 13) was -1.1 g, the “Average Body Weight Change” value ([2]; 5 mg/kg i.p. Q2Dx5 from day 9, day 15) was -2.0 g and the “Average Body Weight Change” value ([2]; 5 mg/kg i.p. Q2Dx5 from day 9, day 17) was -1.0 g. For the same compound, the “Average Body Weight Change” value ([2]; 5 mg/kg i.p. Q2Dx5 from day 9, day 19) was -0.2 g, the “Lowest Average Tumor Size (T/C)” value [2, 17] was 0.02 T/C and the “Tumor Disappearance” value [2, 17] was 1/4. For the same compound, the “Tumor Disapp.” value ([2]; Taxol 15 mg/kg i.v. Q2Dx5 from day 9) was 0/6, the “Average Body Weight Change” value ([2]; Taxol 15 mg/kg i.v. Q2Dx5 from day 9, day 13) was -0.6 g and the “Average Body Weight Change” value ([2]; Taxol 15 mg/kg i.v. Q2Dx5 from day 9, day 15) was -0.8 g. For the same compound, the “Average Body Weight Change” value ([2]; Taxol 15 mg/kg i.v. Q2Dx5 from day 9, day 17) was -0.8 g, the “Average Body Weight Change” value ([2]; Taxol 15 mg/kg i.v. Q2Dx5 from day 9, day 19) was -0.9 g and the “Toxicity Death” value ([2]; nude, mouse, in vivo) was 0/6.

`CC[C@]1(O)C[C@@H]2CN(CCc3c([nH]c4ccccc34)[C@@](C(=O)OC)(c3cc4c(cc3OC)N(C)[C@H]3[C@@](O)(C(=O)OC)[C@H](OC(C)=O)[C@]5(CC)C=CCN6CC[C@]43[C@@H]65)C2)C1` [Vinblastine, Vinblastine sulfate] was tested, and the pIC50 (CCRF-CEM/Taxol®; Homo sapiens, CCRF-CEM) was 8.16, the pIC50 (CCRF-CEM/VBL100; Homo sapiens, CCRF-CEM) was 6.48 and the pIC50 (CCRF-CEM/VBL100; [13]) was 6.48. For the same compound, the pIC50 (CCRF-CEM/VBL100; Homo sapiens, CCRF-CEM, Table 2, CCRF-CEM/VLB) was 6.33, the pIC50 (CCRF-CEM/VBL100; Homo sapiens, CCRF-CEM, Table 5, CCRF-CEM/VLB, single determinations) was 6.36 and the pIC50 (CCRF-CEM/VBL100; [18]) was 6.48. The pIC50 (CCRF-CEM/VBL100; Table 5, CCRF-CEM/VLB, single determinations) was 6.66 and 6.47, the pIC50 (CCRF-CEM/VM1; [13]) was 9.39 and the pIC50 (CCRF-CEM/VM1; [14]) was 9.17. The pIC50 (CCRF-CEM/VM1; [15]) was 9.31, the pIC50 (CCRF-CEM/VM1; [18]) was 9.39 and the pIC50 (CCRF-CEM/VM1; Table 5, single determinations) was 9.41 and 9.44. For the same compound, the pIC50 [1, 16] was 8.58 and the pIC50 (DC-3F/ADX; DC3F/ADX, Table 3) was 5.97.
